One series concerns L1210 cell line. Nature of the series: In vitro cytotoxic activity, L1210. The format is cell-based.
The next series has as its system 5'-d(GCATGC)2. As to the kind of experiment: DNA binding by fluorescence quenching, 5'-d(GCATGC)2. As to the method:
(§1) Apparent absolute DNA binding constants for 1-22 and related agents including luzopeptin A were obtained by measurement of the fluorescence quenching upon titration addition of calf thymus DNA or the deoxyoligonucleotides 5'-d(GCXXGC)2 where XX=AT, TA, GC, and CG. For each agent, the characteristic fluorescence excitation and emission spectra were recorded in 10 mM Tris-HCl, 75 mM NaCl (pH 7.4) buffer, FIG. 6. For the DNA binding assays which quantitate the fluorescence quenching, excitation outside the absorbance range of DNA was employed and the most intense fluorescence emission at a longer wavelength monitored. For assay of the DNA-induced fluorescence quenching of the agents, a 2 mL buffer solution of Tris-HCl (pH 7.4) and 75 mM NaCl was employed. For titration, small aliquots of DNA were added to solutions of the agents in Tris-HCl buffer (pH 7.4).
(§2) Despite these precautions, the fluorescence for a number of the analog solutions decreased for several of analogs (11, 14, 17, 21 and 22) and the quality of the binding constants for these should be viewed with caution. […] The titrations were carried out with 15 min time intervals between DNA additions to allow binding equilibration. […] The titration fluorescence quenching was analyzed by Scatchard analysis (Scatchard, G. Ann. N. Y. Acad. Sci. 1949, 51, 660) with the following equation: rb /c=Kb n-Kb rb where rb is the number of agent molecules bound per DNA base-pair, c is the free drug concentration, Kb is the apparent association constant, and n is the number of agent binding sites per base-pair.
A pronounced downward curvature in an infinite lattice such as calf thymus DNA is recognized to arise in part from neighbor exclusion where the binding of an agent excludes the subsequent binding at nearby sites. This exclusion manifests itself in the plot by a reduction in the apparent binding constant as the DNA lattice approaches saturation and the probability of finding a free site is diminished. In the calf thymus DNA studies, the binding also entails multiple classes of independent binding sites or modes. […]

For series [1], the target named is T1, HIV-1 reverse transcriptase (Human immunodeficiency virus type 1 group M subtype B, UniProt P04585). Nature of the series: Inhibition of HIV-1 reverse transcriptase. The series is classed as biochemical. Here is the method: The assay was performed according to an available procedure (Goldman, M. E.; Salituro, G. S.; Bowen, J. A.; Williamson, J. M.; Zink, D. L.; Schleif, W. A.; Emini, E. A. Mol. Pharmacol. 1990, 38, 20) with slight modification. A 45 L solution of reaction buffer containing 55 mM Tris·HCl, pH 8.2, 80 mM potassium chloride, 12 mM MgCl2, 1 mM DTT, 50 M EGTA, 2.5 g/mL rA·dT, 0.5 Ci of [^3 H]TTP, 10 M TTP, 1 mg/mL BSA, and 0.01% Triton X-100 was added to a well in a filter cluster plate (Millipore MAHV N45). The reverse transcription reaction was initiated upon addition of the reverse transcriptase (1 unit; 1 unit=10 pmol of [^3 H]TMP incorporated/60 min at 37° C.). The plate was incubated at 37° C. for 90 min. The plate was then placed on ice and 200 µL of 13% trichloroacetic acid and 10 mM sodium pyrophosphate was added to each well. The plate was chilled for 2 h and the liquid vacuumed out through the filter using a Millipore manifold (Millipore MAVM 09601). The precipitate was washed with 1 M and 10 mM sodium pyrophosphate twice. The filter was punched out and placed in a scintillation vial. 4 mL of cocktail was added. Radioactivity was determined by liquid scintillation counting.
The effects of sandramycin and its analogs on HIV-1 reverse transcriptase were determined by incubating the agents and the rA·dT containing buffer at 25° C. for 30 min prior to addition of the reverse transcriptase. Reactions containing no agents were used as controls, and those lacking the transcriptase were used as blanks.

Series [2] has as its system calf thymus DNA. Nature of the series: DNA binding constants by fluorescence quenching, calf thymus DNA. Here is the method: as §1, with “For titration, small aliquots of DNA were added to solutions of the agents in Tris-HCl buffer (pH 7.4).” left out
Despite these precautions, the fluorescence for a number of the analog solutions decreased for several of analogs (11, 14, 17, 21 and 22) and the quality of the binding constants for these should be viewed with caution. […] The titration fluorescence quenching was analyzed by Scatchard analysis (Scatchard, G. Ann. N. Y. Acad. Sci. 1949, 51, 660) with the following equation: rb /c=Kb n-Kb rb where rb is the number of agent molecules bound per DNA base-pair, c is the free drug concentration, Kb is the apparent association constant, and n is the number of agent binding sites per base-pair. […]

The test system of series [3] is calf thymus DNA. The note with it: cited from earlier work.
Series [4] deals with T1, HIV-1 reverse transcriptase. The note with it: cited from earlier work.
The subject of series [5] is calf thymus DNA and 5'-d(GCATGC)2. As to the kind of experiment: DNA binding affinity trends over calf thymus DNA and 5'-d(GCATGC)2 (fluorescence quenching). As to the method: as §1, §2
A pronounced downward curvature in an infinite lattice such as calf thymus DNA is recognized to arise in part from neighbor exclusion where the binding of an agent excludes the subsequent binding at nearby sites. This exclusion manifests itself in the plot by a reduction in the apparent binding constant as the DNA lattice approaches saturation and the probability of finding a free site is diminished. In the calf thymus DNA studies, the binding also entails multiple classes of independent binding sites or modes. For simplicity, a linear fit of the high affinity binding sites was used to determine the binding constant attributable to bis-intercalation. For the deoxyoligonucleotides, the curvature can be more simply attributed to multiple classes of independent binding sites or binding modes. There are a number of mathematical methods to deconvolute the curved plot into such individual binding events. In the deoxyoligonucleotide studies, a non-linear fit described by Feldman was also used to deconvolute the curves. The model assumes one ligand with two binding types or sites. Since the number of binding sites is limited, we have interpreted this to indicate a high affinity bis-intercalation and a lower affinity binding potentially involving mono-intercalation. The formula was fit using the JMP^22 statistical fitting program using an initial approximation of the two n values and fitting for K1 and K2.
After 5 min of stirring, an initial fluorescence reading was taken with minimum exposure to the excitation beam. […] The excitation and emission wavelengths used for each analog varied and can be found in FIG. 6. The results of the titration were analyzed by Scatchard analysis. The linear portion of the Scatchard plot was used to determine the high affinity binding constants. In the case of the deoxyoligonucleotide study, a non-linear fit of the curve as described in the text was also used to determine the high affinity binding constant (Feldman, H. A. Anal. Biochem. 1972, 48, 317).

In another series the test system is five cell lines. As to the kind of experiment: In vitro cytotoxic activity of key substructure analogs, five cell lines. The format is cell-based.
The test system of series [6] is calf thymus DNA. Nature of the series: DNA binding constant determination for 23 (ethidium bromide displacement; sandramycin titration). Here is the method:
Calf thymus DNA (1.0×10^-5 M in base-pair) was mixed with ethidium bromide (5.0×10^-6 M) resulting in a 2:1 ratio of base-pair:ethidium in a 10 mM Tris-HCl (pH 7.4), 75 mM NaCl buffer solution (2 mL). The fluorescence was calibrated at 24° C. to 100% F and 0% F with a DNA-ethidium buffer solution and ethidium buffer solution, respectively. The premixed DNA-ethidium solution was titrated with small aliquots of 23 (20 to 40 μL of 3 mM […] in DMSO) and incubated at 24° C. for 30 min prior to each fluorescence measurement. The fluorescence was measured with 545 nm excitation and 595 nm emission with a slit width of 10 nm. The absolute binding constant from three such titrations were determined at 50% ethidium bromide displacement as measured by a drop in fluorescence to 50%. The binding constant of ethidium bromide employed to calculate the absolute binding constant with a competitive or noncompetitive binding model^39 was 4.5×10^5 M^-1 and the results are summarized in Table 4.
A 2 mL of sample containing 400 μL of calf thymus DNA (320 μM in base-pair) with or without the presence of 40 μL of 23 (3.2×10^-3 M in DMSO) in 10 mM Tris-HCl (pH 7.4), 75 mM NaCl buffer solution was titrated with small aliquots of sandramycin (1 μL, 1.0×10^-3 M in DMSO). The quenching of fluorescence was measured 5 min after each addition of sandramycin with 360 nm excitation and 530 nm fluorescence.

The text below walks through data of US6329497A, “Sandramycin analogs” (The Scripps Research Institute, priority 1999, dated 2001).

Broadly, the IC50 is the concentration that gives 50% inhibition.

Read-outs that look alike come from different tables or passages of the source.

For `CC(C)C1C(=O)OCC(NC(=O)c2ncccc2O)C(=O)N2CCCCC2C(=O)NCC(=O)N(C)CC(=O)N(C)C(C(C)C)C(=O)OCC(NC(=O)c2ncccc2O)C(=O)N2CCCCC2C(=O)NCC(=O)N(C)CC(=O)N1C` (stereo not shown) [compound 8], in the series with L1210 cell line, the “cytotoxic potency, fold less potent than 1” value is given as 4000. Also, the “drop in DNA binding affinity” value with 5'-d(GCATGC)2 (5'-d(GCATGC)2, removal of fused benzene ring) was 2.3 to 2.6 kcal/mol; with calf thymus DNA [2] (removal of fused benzene ring) it was 1.7 kcal/mol. In addition, in [1], the “HIV-1 reverse transcriptase inhibition, in words” value was “much less effective”.

Consider `CC[n+]1c(-c2ccccc2)c2cc(N)ccc2c2ccc(N)cc21` [ethidium bromide], for which the “binding constant employed to calculate the absolute binding constant” value with calf thymus DNA [3] is 450000 M⁻¹.

With `COc1ccc2nc(C(=O)N[C@@H]3COC(=O)[C@H](C(C)(C)O)N(C)C(=O)CN(C)C(=O)CNC(=O)[C@@H]4[C@@H](OC(C)=O)CC=NN4C(=O)[C@H](NC(=O)c4nc5ccc(OC)cc5cc4O)COC(=O)[C@H](C(C)(C)O)N(C)C(=O)CN(C)C(=O)CNC(=O)[C@@H]4[C@@H](OC(C)=O)CC=NN4C3=O)c(O)cc2c1` [luzopeptin A, reference compound], the “fold higher than values reported elsewhere” value in series [1] is 20-30. For the same compound, the IC50 is 130 to 190 nM in series [1] (range given for both agents) and 7 nM in series [4] (read-out: IC50 reported elsewhere).

On to `COc1ccc2nc(C(=O)N[C@@H]3COC(=O)[C@H](C(C)(C)O)N(C)C(=O)CN(C)C(=O)CNC(=O)[C@@H]4[C@@H](OC(=O)[C@@H]5C[C@H]5C)CC=NN4C(=O)[C@H](NC(=O)c4cnc5cc(OC)ccc5n4)COC(=O)[C@H](C(C)(C)O)N(C)C(=O)CN(C)C(=O)CNC(=O)[C@@H]4C(OC(C)=O)CC=NN4C3=O)cnc2c1` (stereo partly shown) [quinoxapeptin B], for which, in [4], the “fold less potent than quinoxapeptin A and luzopeptin A” value was “approximately 2”.

For the compound “(N-(Isoquinolinyl-1-carbonyl)-D-Ser-Pip-Gly-Sar-NMe-Val)2 (Serine Hydroxyl) Dilactone [compound 22]”, the “DNA binding affinity, in words” value is on record as “substantially less effective” in the series with 5'-d(GCATGC)2 (5'-d(GCATGC)2, relative to 1 and 4); “comparable to that of the monointercalator 24” in series [5]; “comparable to 4” in the series on calf thymus DNA [2]. Moreover, in series [1], the “HIV-1 reverse transcriptase inhibition, in words” value is listed as “much less effective”.

Consider “(N-BOC-D-Ser-Pip-Gly-Sar-NMe-Val)2 (Serine Hydroxyl) Dilactone [compound 23]”, for which, in the series with five cell lines (both chromophores removed), the “cytotoxic activity, in words” value is “inactive”. Besides, the “fold less potent than 1” value in the series with five cell lines (five cell lines) was “approx 10^5”. The “G° of binding” value in the series with calf thymus DNA [6] is -6.0 kcal/mol.
